Reference: the supplement of paper PMC10307832

Columns and labels:
Experiment in all cases: relative viability (nuclei count vs DMSO), 5 days (fraction); higher = more cells survive
[1] = compound: C1/C(=C\C2=CC=CS2)/C(=O)/C(=C/C3=CC=CS3)/C1 + CC1(C)CCC(c2ccc(Cl)cc2)=C(CN2CCN(c3ccc(C(=O)NS(=O)(=O)c4ccc(N[C@H](CCN5CCOCC5)CSc5ccccc5)c(S(=O)(=O)C(F)(F)F)c4)cc3)CC2)C1 [Navitoclax] (partner 0.5 µM)
Outline: (§1)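 Five library-drug doses in √10 steps were combined with a fixed anchor-drug dose, or a single drug was given alone, by pin tool to lung cancer cell lines in 1536-well plates the day after seeding. Nuclei were stained and counted after 5 days. Relative viability is the nuclei count in treated wells over that in vehicle wells, taken as the median of duplicate plates.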

[2] = compound: C1/C(=C\C2=CC=CS2)/C(=O)/C(=C/C3=CC=CS3)/C1 + COc1cc2c(Oc3ccc(NC(=O)C4(C(=O)Nc5ccc(F)cc5)CC4)cc3F)ccnc2cc1OCCCN1CCOCC1 [Foretinib] (partner 0.25 µM)
Outline: as §1

[3] = compound: C1/C(=C\C2=CC=CS2)/C(=O)/C(=C/C3=CC=CS3)/C1 + Cc1nc(Nc2ncc(C(=O)Nc3c(C)cccc3Cl)s2)cc(N2CCN(CCO)CC2)n1 [Dasatinib] (partner 0.075 µM)
Outline: as §1

TPCA-1 + Crizotinib = compound: C1=CC(=CC=C1C2=CC(=C(S2)NC(=O)N)C(=O)N)F [TPCA-1] + C[C@@H](Oc1cc(-c2cnn(C3CCNCC3)c2)cnc1N)c1c(Cl)ccc(F)c1Cl [Crizotinib] (partner 1 µM)
Outline: as §1

Lestaurtinib + Alpelisib = compound: C[C@]12O[C@H](C[C@]1(O)CO)n1c3ccccc3c3c4c(c5c6ccccc6n2c5c31)CNC4=O [Lestaurtinib] + Cc1nc(NC(=O)N2CCC[C@H]2C(N)=O)sc1-c1ccnc(C(C)(C)C(F)(F)F)c1 [Alpelisib] (partner 2 µM)
Outline: as §1

Question: How did the relative viability ([1]; first compound 0.2 µM) turn out when UMC-11 was run?
Answer: 0.302

Question: What about the relative viability ([1]; first compound 0.6325 µM) of the same cell line?
Answer: 0.362

Question: And the relative viability ([1]; first compound 2 µM)?
Answer: 0.307

Question: And the relative viability ([1]; first compound 20 µM)?
Answer: 0.307

Question: And the relative viability ([2]; first compound 0.2 µM)?
Answer: 0.993

Question: What about the relative viability ([2]; first compound 0.6325 µM) of the same cell line?
Answer: 1.12

Question: What about the relative viability ([2]; first compound 20 µM) of the same cell line?
Answer: 1.03

Question: What about the relative viability ([3]; first compound 0.2 µM) of the same cell line?
Answer: 0.555

Question: What about the relative viability ([3]; first compound 0.6325 µM) of the same cell line?
Answer: 0.507

Question: And the relative viability ([3]; first compound 20 µM)?
Answer: 0.472

Question: What about the relative viability (TPCA-1 + Crizotinib; first compound 0.04 µM) of the same cell line?
Answer: 0.579

Question: What about the relative viability (TPCA-1 + Crizotinib; first compound 0.1265 µM) of the same cell line?
Answer: 0.586

Question: And the relative viability (TPCA-1 + Crizotinib; first compound 0.4 µM)?
Answer: 0.578

Question: And the relative viability (TPCA-1 + Crizotinib; first compound 1.265 µM)?
Answer: 0.573

Question: And the relative viability (TPCA-1 + Crizotinib; first compound 4 µM)?
Answer: 0.274

Question: What about the relative viability (Lestaurtinib + Alpelisib; first compound 0.005 µM) of the same cell line?
Answer: 0.967

Question: What about the relative viability (Lestaurtinib + Alpelisib; first compound 0.01581 µM) of the same cell line?
Answer: 0.968

Question: And the relative viability (Lestaurtinib + Alpelisib; first compound 0.05 µM)?
Answer: 0.471

Question: What about the relative viability (Lestaurtinib + Alpelisib; first compound 0.1581 µM) of the same cell line?
Answer: 0.297

Question: What about the relative viability (Lestaurtinib + Alpelisib; first compound 0.5 µM) of the same cell line?
Answer: 0.156
